Values quoted from earlier work in US20090047276A1, “METHODS FOR […] OR TISSUE RE[…] A […]” (UNIVERSITY OF WASHINGTON, priority 2007, published 2009).

What was measured:
[1] = tested on: GSK-3; settings: literature values (Ring et al. 2003; Cline et al. 2002); read-out: half-maximal effective concentration [EC50]
[2] = tested on: GSK-3; settings: literature values (Ring et al. 2003; Cline et al. 2002)

SMILES	EC50 [1] [nM]	selectivity for GSK-3 [2]
O=[N+]([O-])c1ccc(NCCNc2ncc(-c3ncc[nH]3)c(-c3ccc(Cl)cc3Cl)n2)nc1 [CHIR-837]	375	> 5,000 fold
